ChEMBL document CHEMBL3045520, “Comparative three-dimensional quantitative structure-activity relationship study of safeners and herbicides” (J Agric Food Chem, 2000)

Assay: Binding affinity to SafBP receptor in Zea mays (maize) seedlings by [3H]Saf(R-29148) binding assay

In the case of `CC1(C(Cl)Cl)OCCO1`, the IC50 is reported as 4400 nM.

With `CC1CN(C(=O)C(Cl)Cl)C(C)(C)O1` (centres undefined) the IC50 was 120 nM.

`O=C(C(Cl)Cl)N1CCOC12CCCCC2` gave an IC50 of 6000 nM.

`C=CCN(CC=C)C(=O)C(Cl)Cl` [DICHLORMID] gave an IC50 of 10 nM.
